The values that follow are results of earlier work, collected in US7427493B2, “Recombinant genes for polyketide modifying enzymes” (Kosan Biosciences Incorporated, priority 2002, dated 2008).

The subject of the data set is parasites. As to conditions: background statement.

Turning to `CC[C@H]1OC(=O)[C@H](C)[C@@H](O[C@H]2C[C@@](C)(OC)[C@@H](O)[C@H](C)O2)[C@H](C)[C@@H](O[C@@H]2O[C@H](C)C[C@H](N(C)C)[C@H]2O)[C@](C)(O)C[C@@H](C)C(=O)[C@H](C)[C@@H](O)[C@]1(C)O` [erythromycin], the antiparasitic activity result is given as “does not have antiparasitic activity”.
